Measured values taken from patent US4564619A, “Carbostyril derivative” (Otsuka Pharmaceutical Co., Ltd., priority 1982, dated 1986).

Tests used:
[1] = Change of blood pressure, intravenous administration, anesthetized dog; assay type: in vivo; parameters: unit not given here; settings: femoral artery
Experimental: (§1) The change of blood flow in coronary artery and the change of blood pressure were measured by a method according to Yakura et al., [Japan Journal of Pharmacology, Vol. 57, pages 380-391 (1961)] and according to Taira, et al. [Clin. Exp. Pharmacol. Physiol., Vol. 6, pages 301-316, (1976)].
(§2) An adult bastard dog of either sex weighing 8-13 kg was anesthetized with sodium pentobarbital at the rate of 30 mg/kg by intraveneous administration, then the dog was fixed in supination and was theracotomized under a condition of forced breathing. After another intraveneous administration of sodium heparin at the rate of 500 U/kg, 100 U/kg per hour, the dog was subjected to the following experiments.
(§3) (2) Intraveneous administration
(§4) Morawitz's cannula was cannulated to the coronary sinus venosus through the auricula dextra cordis, and the blood in vein was circulated to the right carotid. The blood flow was measured by an electromagnetic blood flow meter equipped with a blood flow observation probe in the extracorporeal circulation path of the vein. The systolic force was measured by a systolometer (pick-up) placed at the left ventricle of heart, the blood pressure was measured from the femoral artery, and the heart rate was measured from the pulse. A compound to be tested was administered through the cannula being cannulated in femoral vein. The increased amount of the blood flow in coronary artery after the administration of the test compound is shown in Table 4, also the change of blood pressure is shown in Table 5.

[2] = tested on: collagen-induced aggregation in rabbit platelets; experiment: Inhibition of collagen-induced platelet aggregation in rabbit platelet rich plasma; assay type: cell-based; settings: Oryctolagus cuniculus, read-out: Inhibition rate of collagen-induced aggregation; for inhibition at 100 µM (stock): Concentration of the test compound solution 10^-4 mole; for inhibition at 10 µM (stock): Concentration of the test compound solution 10^-5 mole
Experimental: (§5) The platelet aggregation inhibitory effect was measured by using a Platelet Aggregation Tracer Model PAT-6M (manufactured by Nikoh Bio-Science Co., Ltd.) by a method according to Kimura, et al., [IGAKU-NO-AYUMI (Progress in Medicine), Vol. 114, No. 9, pp. 718-727, Aug. 30, 1980, and Nature, pp. 927-929, 1962].
(§6) The blood sample used for the test was a 1:9 (by volume) mixture of "3.8%-CITRATE"® (a registered trademark for 3.8%-sodium citrate, manufactured by Green Cross Corp.) and whole blood collected from rabbits. Said sample was subjected to 10-minute centrifugal separation at 1,000 r.p.m. (200xG) to obtain a platelet rich plasma (PRP). The PRP thus obtained was separated, and the remaining blood sample was further subjected to 15-minute centrifugal separation at 3,000 r.p.m. (2,000xG) to obtain a platelet poor plasma (PPP).
(§7) The number of platelets in the PRP was counted by the Brecher-Clonkite Method, and the PRP was diluted with the PPP to prepare a PRP sample with a platelet concentration of 600,000/microliter to prepare for an adenosine diphosphate (ADP)-induced aggregation test, and a collagen-induced aggregation test. 0.2 Milliliter of the PRP sample was added to 2 microliters of a solution of a test compound of predetermined concentration and this mixture was placed in a 37° C. thermostat for one minute. Then 20 microliters of an ADP or collagen solution was added to the mixture. In this test, the ADP solution was prepared by adjustment to a concentration of 7.5×10^-5 M by using Auren-Beronal buffer solution (pH 7.35). Further, the collagen solution was prepared by adjustment to a concentration of 200 micrograms/ml by using collagen reagent of "Holm"® (manufactured by Hormon-Chemie Munchen, GmbH.) which was diluted wih a physiological saline solution.
(§8) The transmittance of the resultant test mixture was determined and the change of transmittance was recorded by using the aggregometer at a stirrer speed of 1,100 r.p.m.
(§9) The platelet aggregation inhibitory effect of the test compound was measured in terms of inhibition rate (%) with respect to the aggregation rate of the controls. The aggregation rate was calculated from the following formula.
(§10) Aggregation rate=[(c-a)/(b-a)]×100
(§11) The percent inhibition is calculated from the following formula.
(§12) Inhibition rate (%)=[(A-B)/A]×100
(§13) The inhibitory effect of the test compounds on collagen-induced aggregation in rabbit platelets is shown in Table 1, similarly such effect on ADP-induced aggregation in rabbit platelets is shown in Table 2.

[3] = tested on: coronary artery; experiment: Increased amount of the blood flow in coronary artery, intravenous administration, anesthetized dog; assay type: in vivo
Experimental: as §1, §2, §3, §4

[4] = tested on: ADP-induced aggregation in rabbit platelets; experiment: Inhibition of ADP-induced platelet aggregation in rabbit platelet rich plasma; assay type: cell-based; settings: Oryctolagus cuniculus, read-out: Inhibition rate of ADP-induced aggregation; for inhibition at 100 µM (stock): Concentration of the test compound solution 10^-4 mole; for inhibition at 10 µM (stock): Concentration of the test compound solution 10^-5 mole
Experimental: as §5, §6, §7, §8, §9, §10, §11, §12, §13

| Compound | Change of blood pressure ([1]; 30 micrograms/kg) | Change of blood pressure ([1]; 100 micrograms/kg) | Change of blood pressure ([1]; 300 micrograms/kg) | inhibition at 100 µM (stock) [2] [%] | inhibition at 10 µM (stock) [2] [%] | Increased amount of the blood flow in coronary artery ([3]; 10 micrograms/kg) [mL/min] | Increased amount of the blood flow in coronary artery ([3]; 30 micrograms/kg) [mL/min] | Increased amount of the blood flow in coronary artery ([3]; 100 micrograms/kg) [mL/min] | Increased amount of the blood flow in coronary artery ([3]; 300 micrograms/kg) [mL/min] | inhibition at 100 µM (stock) [4] [%] | inhibition at 10 µM (stock) [4] [%] | Change of blood pressure ([1]; 3 micrograms/kg) | Change of blood pressure ([1]; 10 micrograms/kg) | Increased amount of the blood flow in coronary artery ([3]; 3 micrograms/kg) [mL/min] | Increased amount of the blood flow in coronary artery ([3]; 1000 micrograms/kg) [mL/min] |
| --- | --- | --- | --- | --- | --- | --- | --- | --- | --- | --- | --- | --- | --- | --- | --- |
| COC(=O)C1=C(C)NC(C)=C(C(=O)OCCCOc2ccc3[nH]c(=O)ccc3c2)C1c1cccc([N+](=O)[O-])c1 (stereo not drawn) [Compound 8, 6-{3-[2,6-Dimethyl-5-methoxycarbonyl-4-(3-nitrophenyl)-1,4-dihydropyridin-3-carboxy]-propoxy}carbostyril] | -3 | -16 | -33 | 99 | 27 | 1 | 2 | 12 | 56 | 76 | 10 |  |  |  |  |
| COC(=O)C1=C(C)NC(C)=C(C(=O)OCCCOc2ccc3c(c2)NC(=O)CC3)C1c1cccc([N+](=O)[O-])c1 (stereo not drawn) [Compound 6, 7-{3-[2,6-Dimethyl-5-methoxycarbonyl-4-(3-nitrophenyl)-1,4-dihydropyridin-3-carboxy]-propoxy}-3,4-dihydrocarbostyril] | -15 | -32 | -44 | 19 | 3 | 3 | 25 | 58 | 64 | 15 | 6 | -3 | -5 |  |  |
| COC(=O)C1=C(C)NC(C)=C(C(=O)OCCCOc2cccc3c2NC(=O)CC3)C1c1cccc([N+](=O)[O-])c1 (stereo not drawn) [Compound 9, 8-{3-[2,6-Dimethyl-5-methoxycarbonyl-4-(3-nitrophenyl)-1,4-dihydropyridin-3-carboxy]-propoxy}-3,4-dihydrocarbostyril] | -36 | -41 | -36 | 16 | 2 | 17 | 47 | 66 | 81 | 12 | 7 | -14 | -28 | 4 |  |
| CCN(CCOC(=O)C1=C(C)NC(C)=C(C(=O)OC)C1c1ccccc1)C(=O)CCCOc1ccc2[nH]c(=O)ccc2c1 (stereo not drawn) [Compound 36, N--[2,(1,4-Dihydro-2,6-dimethyl-5-methoxycarbonyl-4-phenylpyridin-3-carboxy)ethyl]-N--ethyl-4-(6-carbostyriloxy)butyramide] |  |  |  | 100 | 100 |  |  | 4 | 12 | 98 | 55 |  |  |  | 38 |
| COC(=O)C1=C(C)NC(C)=C(C(=O)OCCN(C(=O)CCCOc2ccc3c(c2)CCC(=O)N3)C2CCCCC2)C1c1ccccc1[N+](=O)[O-] (stereo not drawn) [Compound 32, N--{2-[1,4-Dihydro-2,6-dimethyl-5-methoxycarbonyl-4-(2-nitrophenyl)pyridin-3-carboxy]ethyl}-N--cyclohexyl-4-(3,4-dihydro-6-carbostyriloxy)-butyramide] | -6 | -8 | -19 | 100 | 34 |  |  | 16 | 55 | 98 | 25 |  | -1 |  | 97 |
| COC(=O)C1=C(C)NC(C)=C(C(=O)OCCN(C(=O)CCCOc2cccc3[nH]c(=O)ccc23)C2CCCCC2)C1c1cccc([N+](=O)[O-])c1 (stereo not drawn) [Compound 33, N--{2-[1,4-Dihydro-2,6-dimethyl-5-methoxycarbonyl-4-(3-nitrophenyl)pyridin-3-carboxy]ethyl}-N--cyclohexyl-4-(5-carbostyriloxy)butyramide] |  |  |  | 100 | 34 |  |  | 1 | 4 | 98 | 25 |  |  |  | 48 |
| COC(=O)C1=C(C)NC(C)=C(C(=O)OCCCOc2ccc3c(c2)CCC(=O)N3)C1c1cccc([N+](=O)[O-])c1 (stereo not drawn) [Compound 5, 6-{3-[2,6-Dimethyl-5-methoxycarbonyl-4-(3-nitrophenyl)-1,4-dihydropyridin-3-carboxy]-propoxy}-3,4-dihydrocarbostyril] |  |  |  | 38 | 12 | 12 | 47 | 89 | 77 | 20 | 4 |  |  | 3 |  |
| COC(=O)C1=C(C)NC(C)=C(C(=O)OCCN(C(=O)CCCOc2ccc3[nH]c(=O)ccc3c2)C2CCCCC2)C1c1ccccc1[N+](=O)[O-] (stereo not drawn) [Compound 34, N--{2-[1,4-Dihydro-2,6-dimethyl-5-methoxycarbonyl-4-(2-nitrophenyl)pyridin-3-carboxy]ethyl}-N--cyclohexyl-4-(6-carbostyriloxy)butyramide] |  |  |  | 100 | 100 |  |  | 22 | 47 | 94 | 98 |  |  |  | 54 |
| COC(=O)C1=C(C)NC(C)=C(C(=O)OCCCCOc2cccc3[nH]c(=O)ccc23)C1c1cccc([N+](=O)[O-])c1 (stereo not drawn) [Compound 18, 5-{4-[2,6-Dimethyl-5-methoxycarbonyl-4-(3-nitrophenyl)-1,4-dihydropyridin-3-carboxy]-butoxy}carbostyril] | -19 | -33 | -43 | 100 | 3 |  |  |  |  | 48 | 15 |  | -5 |  |  |
